The target of the test is T1, human TLR7 (Homo sapiens, UniProt Q9NYK1).
T1 construct: host or cells: HEK293 (HEK-Blue hTLR7)
T1 sequence (Q9NYK1 27-1049): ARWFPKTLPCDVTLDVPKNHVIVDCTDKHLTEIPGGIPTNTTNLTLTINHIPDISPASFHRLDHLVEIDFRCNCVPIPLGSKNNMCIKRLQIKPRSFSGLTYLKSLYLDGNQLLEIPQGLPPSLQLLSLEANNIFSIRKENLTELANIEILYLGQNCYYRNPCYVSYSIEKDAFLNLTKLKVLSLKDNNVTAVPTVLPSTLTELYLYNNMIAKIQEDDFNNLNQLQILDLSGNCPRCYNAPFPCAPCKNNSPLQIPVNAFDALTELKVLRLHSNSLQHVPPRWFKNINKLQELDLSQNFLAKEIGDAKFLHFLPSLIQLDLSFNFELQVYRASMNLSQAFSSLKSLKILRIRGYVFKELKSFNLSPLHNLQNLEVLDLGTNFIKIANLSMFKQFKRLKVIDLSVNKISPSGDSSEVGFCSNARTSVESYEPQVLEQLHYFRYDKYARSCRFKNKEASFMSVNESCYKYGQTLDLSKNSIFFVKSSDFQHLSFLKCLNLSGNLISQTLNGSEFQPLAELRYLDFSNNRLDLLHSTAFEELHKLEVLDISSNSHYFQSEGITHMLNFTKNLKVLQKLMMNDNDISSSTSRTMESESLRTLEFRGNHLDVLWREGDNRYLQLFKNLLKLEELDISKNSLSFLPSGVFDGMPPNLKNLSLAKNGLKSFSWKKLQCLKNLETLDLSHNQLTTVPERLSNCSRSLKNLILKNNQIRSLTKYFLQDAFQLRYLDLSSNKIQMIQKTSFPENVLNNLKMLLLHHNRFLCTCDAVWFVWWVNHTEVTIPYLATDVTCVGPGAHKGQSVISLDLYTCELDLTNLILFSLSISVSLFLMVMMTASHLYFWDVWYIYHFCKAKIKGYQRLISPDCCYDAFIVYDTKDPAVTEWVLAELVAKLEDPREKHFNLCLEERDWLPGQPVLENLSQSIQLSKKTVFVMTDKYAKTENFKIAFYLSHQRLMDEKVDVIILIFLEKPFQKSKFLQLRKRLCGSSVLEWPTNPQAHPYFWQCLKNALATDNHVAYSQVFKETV
The test can be described thus: HEK293-Blue-hTLR-7 cells assay (SEAP reporter, R848 stimulation). Format: cell-based. As to conditions: HEK293-Blue-hTLR7 cells, R848, 20 hrs; read-out: HEK/hTLR7 IC50. An outline of the steps:
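HEK293-Blue-hTLR7 cells (NF-κB/AP-1-driven SEAP reporter) were stimulated with R848 alongside serially diluted compound at 1% final DMSO for 20 h at 37 °C. Supernatant SEAP was then developed with QUANTI-Blue for 2 h at 37 °C and absorbance read at 620–655 nm; antagonism is measured as reduced reporter signal.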
Take `C[C@@H]1CN(c2ccc(C#N)n3ncc(F)c23)C[C@H](CN2CCN(c3ccc(N4CC[C@@H](N)[C@H](F)C4)nc3)CC2)O1` [Example 175, 4-[(2S,6R)-2-[[4-[6-[(3R,4R)-4-amino-3-fluoro-1-piperidyl]-3-pyridyl]piperazin-1-yl]methyl]-6-methyl-morpholin-4-yl]-3-fluoro-pyrazolo[1,5-a]pyridine-7-carbonitrile]: the IC50 was determined as 10 nM.

In the case of `C[C@@H]1CN(c2ccc(C#N)c3ncccc23)C[C@H](CN2CCN(c3ccnc(OCCN(C)C)n3)CC2)O1` [Example 30, 5-[(2S,6R)-2-[[4-[2-[2-(dimethylamino)ethoxy]pyrimidin-4-yl]piperazin-1-yl]methyl]-6-methyl-morpholin-4-yl]quinoline-8-carbonitrile], the IC50 was determined as 16 nM.

For the compound `Cc1cc(N2CCNCC2)nc(N2CCN(C[C@H]3CN(c4ccc(C#N)c5ncccc45)C[C@@H](C)O3)CC2)n1` [Example 68, 5-[(2R,6S)-2-methyl-6-[[4-(4-methyl-6-piperazin-1-yl-pyrimidin-2-yl)piperazin-1-yl]methyl]morpholin-4-yl]quinoline-8-carbonitrile], the IC50 came to 9 nM.

Consider `C[C@@H]1CN(c2ccc(C#N)n3ncc(F)c23)C[C@H](CN2CCN(c3ccc(N4CCOC5(CNC5)C4)nc3)CC2)O1` [Example 178, 3-fluoro-4-[(2R,6S)-2-methyl-6-[[4-[6-(5-oxa-2,8-diazaspiro[3.5]nonan-8-yl)-3-pyridyl]piperazin-1-yl]methyl]morpholin-4-yl]pyrazolo[1,5-a]pyridine-7-carbonitrile], for which the IC50 was determined as 38 nM.

As to `C[C@@H]1CN(c2ccc(C#N)n3ncc(F)c23)C[C@H](CN2CCN(c3ccc(C[C@@H]4CNCCO4)cc3)CC2)O1` [Example 186, 3-fluoro-4-[(2R,6S)-2-methyl-6-[[4-[4-[[(2R)-morpholin-2-yl]methyl]phenyl]piperazin-1-yl]methyl]morpholin-4-yl]pyrazolo[1,5-a]pyridine-7-carbonitrile], the IC50 was 18 nM.

As to `C[C@@H]1CN(c2ccc(C#N)n3ncc(F)c23)C[C@H](CN2CCN(c3ccc([C@@H]4CNCCO4)c(F)c3)CC2)O1` [Example 184, 3-fluoro-4-[(2S,6R)-2-[[4-[3-fluoro-4-[(2R)-morpholin-2-yl]phenyl]piperazin-1-yl]methyl]-6-methyl-morpholin-4-yl]pyrazolo[1,5-a]pyridine-7-carbonitrile], the IC50 was 23 nM.

As for `C[C@@H]1CN(c2cc(=O)n(C)c3ncccc23)C[C@H](CN2CC(c3ccc(N4CC(C)(N)C4)cc3)C2)O1` [Example 176, 4-[(2S,6R)-2-[[3-[4-(3-amino-3-methyl-azetidin-1-yl)phenyl]azetidin-1-yl]methyl]-6-methyl-morpholin-4-yl]-1-methyl-1,8-naphthyridin-2-one], the IC50 turned out to be 36 nM.

With `Cc1nc(N2CCNCC2)nc(N2CCN(C[C@H]3CN(c4ccc(C#N)c5ncccc45)C[C@@H](C)O3)CC2)c1C` [Example 46, 5-[(2S,6R)-2-[[4-(5,6-dimethyl-2-piperazin-1-yl-pyrimidin-4-yl)piperazin-1-yl]methyl]-6-methyl-morpholin-4-yl]quinoline-8-carbonitrile], the IC50 was found to be 18 nM.

`Cc1cc(N2CCN(C[C@H]3CN(c4ccc(C#N)c5ncccc45)C[C@@H](C)O3)CC2)nc(N2CCNCC2)n1` [Example 47, 5-[(2R,6S)-2-methyl-6-[[4-(6-methyl-2-piperazin-1-yl-pyrimidin-4-yl)piperazin-1-yl]methyl]morpholin-4-yl]quinoline-8-carbonitrile]: the IC50 came to 13 nM.

As for `C[C@@H]1CN(c2cc(=O)n(C)c3ncccc23)C[C@H](CN2CC(c3ccc(N4C[C@H]5NCCO[C@@H]5C4)cc3)C2)O1` [Example 182, 4-[(2S,6R)-2-[[3-[4-[(4aR,7aR)-3,4,4a,5,7,7a-hexahydro-2H-pyrrolo[3,4-b][1,4]oxazin-6-yl]phenyl]azetidin-1-yl]methyl]-6-methyl-morpholin-4-yl]-1-methyl-1,8-naphthyridin-2-one], the IC50 came out at 26 nM.

On to `C[C@@H]1CN(c2ccc(C#N)c3ncccc23)C[C@H](CN2CCN(c3ccc(N4CC(N)C(F)C4)nc3)CC2)O1` (stereo partly drawn) [Example 44, 5-[(2S,6R)-2-[[4-[6-(3-amino-4-fluoro-pyrrolidin-1-yl)-3-pyridyl]piperazin-1-yl]methyl]-6-methyl-morpholin-4-yl]quinoline-8-carbonitrile], for which the IC50 came out at 28 nM.

Regarding `C[C@@H]1CN(c2ccc(C#N)c3ncccc23)C[C@H](CN2CCN(c3cc(N4CCNCC4)ncn3)CC2)O1` [Example 18, 5-[(2R,6S)-2-methyl-6-[[4-(6-piperazin-1-ylpyrimidin-4-yl)piperazin-1-yl]methyl]morpholin-4-yl]quinoline-8-carbonitrile], the IC50 turned out to be 11 nM.

In the case of `C[C@@H]1CN(c2ccc(C#N)c3ncccc23)C[C@H](CN2CCN(c3cccc(N[C@H]4CNC[C@@H]4F)n3)CC2)O1` [Example 35, 5-[(2S,6R)-2-[[4-[6-[[(3S,4S)-4-fluoropyrrolidin-3-yl]amino]-2-pyridyl]piperazin-1-yl]methyl]-6-methyl-morpholin-4-yl]quinoline-8-carbonitrile], the IC50 was determined as 65 nM.

As to `C[C@@H]1CN(c2ccc(C#N)c3ncccc23)C[C@H](CN2CCN(c3cccc(N4CCC(N)CC4)n3)CC2)O1` [Example 36, 5-[(2S,6R)-2-[[4-[6-(4-amino-1-piperidyl)-2-pyridyl]piperazin-1-yl]methyl]-6-methyl-morpholin-4-yl]quinoline-8-carbonitrile], the IC50 stood at 28 nM.

For the compound `Cc1cc(N2CCN(C[C@H]3CN(c4ccc(C#N)c5nccnc45)C[C@@H](C)O3)CC2)nc(N2CCNCC2)n1` [Example 64, 8-[(2R,6S)-2-methyl-6-[[4-(6-methyl-2-piperazin-1-yl-pyrimidin-4-yl)piperazin-1-yl]methyl]morpholin-4-yl]quinoxaline-5-carbonitrile], the IC50 is 5 nM.

In the case of `C[C@@H]1CN(c2ccc(C#N)c3ncccc23)C[C@H](CN2CCN(c3nc(N4CCNCC4)ncc3C#N)CC2)O1` [Example 50, 5-[(2S,6R)-2-[[4-(5-cyano-2-piperazin-1-yl-pyrimidin-4-yl)piperazin-1-yl]methyl]-6-methyl-morpholin-4-yl]quinoline-8-carbonitrile], the IC50 stood at 16 nM.

For `C[C@@H]1CN(c2ccc(C#N)n3ncc(F)c23)C[C@H](CN2CCN(c3ccc(N4CC5(CNCCO5)C4)nc3)CC2)O1` [Example 169, 3-fluoro-4-[(2R,6S)-2-methyl-6-[[4-[6-(5-oxa-2,8-diazaspiro[3.5]nonan-2-yl)-3-pyridyl]piperazin-1-yl]methyl]morpholin-4-yl]pyrazolo[1,5-a]pyridine-7-carbonitrile], the IC50 was 9 nM.

The values are drawn from patent publication US20210395239A1 (Hoffmann-La Roche Inc., priority 2018, published 2021).
